Data set [1] deals with MDA-MB-436 cells. The data set is described as follows: MDA-MB-436 cell proliferation inhibition test (CellTiter-Glo, 7 days). Conditions: Homo sapiens, MDA-MB-436, 168 h, 7 days incubation. Format: cell-based. A general note: In ATP-based viability assays light output follows the ATP content of the culture.
Data set [2] has as its target T1, recombinant human PARP2 protein (Homo sapiens, UniProt Q9UGN5).
T1 construct: purchased BPS 80502
As to the kind of experiment: PARP2 inhibitory activity (histone substrate, chemiluminescent ELISA). Format: biochemical. In general terms: In an ELISA, binding on a coated surface is turned into a signal by an enzyme label.

In data set [3] the target is Recombinant human PARP1 protein (Homo sapiens, UniProt P09874). The data set is described as follows: PARP1 inhibitory activity (histone substrate, chemiluminescent ELISA). Format: biochemical. To be noted: for PARP1/2 Fold selectivity: ratio of PARP2 IC50 to PARP1 IC50.
Chain of Recombinant human PARP1 protein (P09874 whole entry): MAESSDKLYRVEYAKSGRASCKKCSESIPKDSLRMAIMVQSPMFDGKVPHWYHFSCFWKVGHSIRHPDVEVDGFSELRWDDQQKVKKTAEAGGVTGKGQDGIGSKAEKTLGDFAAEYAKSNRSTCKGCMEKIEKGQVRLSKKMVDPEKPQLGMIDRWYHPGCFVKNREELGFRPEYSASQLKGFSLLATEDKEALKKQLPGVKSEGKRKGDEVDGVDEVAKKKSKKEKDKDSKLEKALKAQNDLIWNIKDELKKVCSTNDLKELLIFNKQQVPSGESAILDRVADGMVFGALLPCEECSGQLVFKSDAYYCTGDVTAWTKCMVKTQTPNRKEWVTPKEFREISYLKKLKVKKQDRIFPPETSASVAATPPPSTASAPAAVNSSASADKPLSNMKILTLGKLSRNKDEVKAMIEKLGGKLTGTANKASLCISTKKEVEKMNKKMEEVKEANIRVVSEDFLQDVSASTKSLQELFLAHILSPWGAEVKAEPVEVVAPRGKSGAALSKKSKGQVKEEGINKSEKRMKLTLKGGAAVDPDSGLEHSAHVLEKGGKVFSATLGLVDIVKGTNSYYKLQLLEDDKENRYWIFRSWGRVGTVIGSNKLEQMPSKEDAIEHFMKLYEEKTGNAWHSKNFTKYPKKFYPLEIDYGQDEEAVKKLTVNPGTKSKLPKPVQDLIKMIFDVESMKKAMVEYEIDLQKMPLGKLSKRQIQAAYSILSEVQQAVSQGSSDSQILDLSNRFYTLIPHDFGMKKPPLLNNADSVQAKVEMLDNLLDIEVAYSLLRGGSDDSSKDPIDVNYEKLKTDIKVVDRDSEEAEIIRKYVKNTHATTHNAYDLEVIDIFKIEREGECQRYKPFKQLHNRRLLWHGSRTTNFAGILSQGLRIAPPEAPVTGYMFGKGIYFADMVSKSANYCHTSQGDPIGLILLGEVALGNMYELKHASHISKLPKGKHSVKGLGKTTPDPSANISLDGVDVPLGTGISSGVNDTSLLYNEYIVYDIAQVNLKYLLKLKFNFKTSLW
A short description of data set [4]: Preliminary pharmacokinetic tests in mice. Type of data set: in vivo. To be noted: male, ICR.
Setting [5] is: histone substrate, read-out: PARP2 IC50.
[6] abbreviates: histone substrate, 500 µM NAD+ added to the substrate solution, read-out: PARP1 IC50.

Structures are written as SMILES. Like-named read-outs stand apart in the source and are kept apart here. A value given as a limit tells only on which side of the number the result lay.

The IC50 is the midpoint of a concentration-inhibition curve. Usually AUC(0-t) stands for the area under the concentration-time curve up to a stated or last time point. Usually clearance stands for a measure of how efficiently the substance is removed, as volume per time. As a reminder, the half-life is how long it takes for the measured level to halve. Low readings indicate fast loss, high ones slow loss.

T1 sequence (Q9UGN5 whole entry): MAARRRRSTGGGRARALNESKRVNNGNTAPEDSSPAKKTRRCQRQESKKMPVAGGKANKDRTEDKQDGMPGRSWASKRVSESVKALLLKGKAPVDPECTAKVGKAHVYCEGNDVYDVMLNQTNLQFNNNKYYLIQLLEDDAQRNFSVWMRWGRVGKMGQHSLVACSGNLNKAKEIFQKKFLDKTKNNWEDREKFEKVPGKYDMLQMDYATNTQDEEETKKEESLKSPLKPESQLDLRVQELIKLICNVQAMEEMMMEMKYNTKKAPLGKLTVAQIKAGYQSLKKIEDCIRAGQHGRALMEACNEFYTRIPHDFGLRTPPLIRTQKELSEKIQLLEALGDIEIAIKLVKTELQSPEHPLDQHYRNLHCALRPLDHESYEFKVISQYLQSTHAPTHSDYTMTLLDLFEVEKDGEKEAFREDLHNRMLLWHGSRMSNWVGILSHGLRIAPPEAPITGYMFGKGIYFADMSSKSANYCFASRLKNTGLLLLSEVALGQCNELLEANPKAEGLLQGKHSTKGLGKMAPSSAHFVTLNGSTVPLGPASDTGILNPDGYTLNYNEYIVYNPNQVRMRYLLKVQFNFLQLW

`CNC(=O)c1ccc(N2CCN(Cc3cc4c5c(cnn5C5(CC5)C(=O)N4)c3)CC2)c(Cl)n1` [Compound 38] had an IC50 in data set [1] of less than 1.52 nM.
In the case of `CNC(=O)c1ccc(N2CCN(Cc3cc4c5c(cnn5c3)N(C(C)C)C(=O)N4)CC2)c(F)n1` [Compound 55], the results for the IC50 in data set [2] (setting [5]) and in data set [3] (setting [6]) were 1010 nM and 2.64 nM, respectively. Also, the “PARP1/2 Fold selectivity” value in data set [3] was 382.
Regarding `CNC(=O)c1ccc(N2CCN(Cc3cc4c5c(cnn5C5(CC5)C(=O)N4)c3)CC2)c(C)n1` [Compound 39], the IC50 in data set [1] is less than 1.52 nM.
Take `CCCN1C(=O)Nc2cc(CN3CCN(c4ccc(C(=O)NC)nc4C)CC3)cn3ncc1c23` [Compound 62]: the results for the half-inhibitory concentration (IC50) in data set [1], in data set [2] (setting [5]) and in data set [3] (setting [6]) were 20.9 nM, 1400 nM and 3.3 nM, respectively. Also, the “PARP1/2 Fold selectivity” value in data set [3] was 422.3.
`CNC(=O)c1ccc(N2CCN(Cc3cc4c5c(cnn5c3)N(C3CCC3)C(=O)N4)[C@H](C)C2)c(C)n1` [Compound 79]: the IC50 in data set [1] came to 21.8 nM.
On to `CNC(=O)c1ccc(N2CCN(Cc3cc4c5c(cnn5[C@@H](C5CC5)C(=O)N4)c3)CC2)c(Cl)n1` [Compound 43-1], for which the figures for the 50% inhibitory concentration (IC50) in data set [1], in data set [2] (setting [5]) and in data set [3] (setting [6]) were 8.7 nM, 575 nM and 1.67 nM, respectively. The “PARP1/2 Fold selectivity” value in data set [3] amounted to 344.5.
Consider `CNC(=O)c1ccc(N2CCN(Cc3cc4c5c(cnn5c3)N(C3CCC3)C(=O)N4)[C@H](C)C2)c(Cl)n1` [Compound 80], for which the IC50 in data set [1] is 18.7 nM.
Regarding `CNC(=O)c1ccc(N2CCN(Cc3cc4cnn5c4c(c3F)NC(=O)C53CC3)CC2)c(Cl)n1` [Compound 41], the figures for the IC50 in data set [1], in data set [2] (setting [5]) and in data set [3] (setting [6]) were 4.4 nM, 71.9 nM and 0.1 nM, respectively. In addition, the “PARP1/2 Fold selectivity” value in data set [3] amounted to 719.
For `CNC(=O)c1ccc(N2CCN(Cc3cc4c5c(c3)ncn5C(C3CCC3)C(=O)N4)CC2)c(Cl)n1` (centres unmarked) [Compound 81], in that order: 4.6 nM, 2410 nM, 4.2 nM and 574.1.
Turning to `CNC(=O)c1ccc(N2CCN(Cc3cc4c5c(cnn5CC(=O)N4)c3)CC2)c(Cl)n1` [Compound 26], the half-inhibitory concentration (IC50) in data set [2] (setting [5]) was determined as 1440 nM; in data set [3] (setting [6]), 0.28 nM. In addition, the “PARP1/2 Fold selectivity” value in data set [3] turned out to be 5150.
Take `CNC(=O)c1ccc(N2CCN(Cc3cn4ncc5c4c(c3C)NC(=O)N5C3CC3)CC2)c(C)n1` [Compound 66]: the IC50 in data set [1] came out at 48.1 nM; in data set [2] (setting [5]) it was 1380 nM; in data set [3] (setting [6]), 3.3 nM. For the same molecule, in data set [3], the “PARP1/2 Fold selectivity” value stood at 417.5.
Consider `CCN1C(=O)Nc2cc(CN3CCN(c4ccc(C(=O)NC)nc4C)CC3)cn3ncc1c23` [Compound 30], for which the IC50 worked out at 2.7 nM in data set [1], 211 nM in data set [2] (setting [5]) and 1.24 nM in data set [3] (setting [6]). Further, the “PARP1/2 Fold selectivity” value in data set [3] amounted to 170.8.
In turn, `CCC1C(=O)Nc2cc(CN3CCN(c4ccc(C(=O)NC)nc4Cl)CC3)cc3cnn1c23` (centres unmarked) [Compound 8] registered an IC50 in data set [1] of 12.7 nM.
Consider `CCN1C(=O)Nc2cc(CN3CCN(c4ccc(C(=O)NC)nc4F)CC3)cc3c2c1nn3C` [Compound B1, 5-(4-((3-ethyl-1-methyl-4-oxo-1,3,4,5-tetrahydropyrazolo[3,4,5-d]quinazolin-7-yl)methyl)piperazine-1-yl)-6-fluoro-N-methylpicolinamide, reference compound], for which the IC50 in data set [2] worked out at 3.7 nM. Moreover, in data set [3], the 50% inhibitory concentration (IC50) was 1.4 nM and the “PARP1/2 Fold selectivity” value is on record as 2.64.
Regarding `CNC(=O)c1ccc(N2CCN(Cc3cc4c5c(cnn5c3)N(CC3CCC3)C(=O)N4)CC2)c(C)n1` [Compound 69], in data set [1], 720 nM corresponded to half-maximal inhibition (IC50).
As for `CNC(=O)c1ccc(N2CCN(Cc3cc4c5c(cnn5c3)NC(=O)N4)CC2)c(C)n1` [Compound 64], in data set [1], the IC50 was found to be 17.5 nM.
Take `CC[C@H]1C(=O)Nc2cc(CN3CCN(c4ccc(C(=O)NC)nc4F)CC3)cc3cnn1c23` [Compound 5-1]: the IC50 came to 27.4 nM in data set [1] and 1.35 nM in data set [3] (setting [6]).
As to `CC1C(=O)Nc2cc(CN3CCN(c4ccc(C#N)cn4)CC3)cc3cnn1c23` (centres unmarked) [Compound 35], the midpoint of inhibition in data set [1], the IC50, lay at 213 nM.
Regarding `CNC(=O)c1ccc(N2CCN(Cc3cc4c5c(c3)ncn5[C@@H](C3CC3)C(=O)N4)CC2)c(C)n1` [Compound 49-1], the IC50 in data set [1] amounted to 20.4 nM; in data set [2] (setting [5]), 1310 nM; in data set [3] (setting [6]), 0.71 nM. Besides, the “PARP1/2 Fold selectivity” value in data set [3] is listed as 1852.
In data set [1], `CNC(=O)c1ccc(N2CCN(Cc3cc4c5c(cnn5c3)N(CC(C)O)C(=O)N4)CC2)c(C)n1` (centres unmarked) [Compound 67] had a half-inhibitory concentration (IC50) of 392 nM.
`CNC(=O)c1ccc(N2CCN(Cc3cc4c5c(cnn5c3)N(C3CCC3)C(=O)N4)C[C@H]2C)c(C)n1` [Compound 72]: the results for the IC50 in data set [2] (setting [5]) and in data set [3] (setting [6]) were 474 nM and 4.9 nM, respectively. For the same molecule, in data set [3], the “PARP1/2 Fold selectivity” value was found to be 97.6.
For the molecule `CNC(=O)c1ccc(N2CCN(Cc3cc4c5c(cnn5c3)N(C3CC3)C(=O)N4)CC2)c(F)n1` [Compound 53], the concentration for half-maximal inhibition (IC50) in data set [1] was 2.2 nM; in data set [2] (setting [5]), 45.5 nM; in data set [3] (setting [6]), 2.16 nM. For the same molecule, in data set [3], the “PARP1/2 Fold selectivity” value came to 21.1.
On to `CNC(=O)c1ccc(N2CCN(Cc3cc4c5c(c(C)nn5c3)N(C)C(=O)N4)CC2)c(C)n1` [Compound 57], for which, in data set [1], the half-inhibitory concentration (IC50) was determined as 1.3 nM.
The molecule `CNC(=O)c1ccc(N2CCN(Cc3cc4c5c(cnn5c3)N(C3CCC3)C(=O)N4)CC2)c(Cl)n1` [Compound 73] came in with an IC50 in data set [1] of 3.2 nM.
As for `CNC(=O)c1ccc(N2CCN(Cc3cc4c5c(cnn5[C@H](C5CC5)C(=O)N4)c3)CC2)c(Cl)n1` [Compound 43-2], the IC50 in data set [1] turned out to be 1.7 nM; in data set [2] (setting [5]), 139 nM; in data set [3] (setting [6]), 1.04 nM. Further, the “PARP1/2 Fold selectivity” value in data set [3] came to 133.3.
Turning to `CCN1C(=O)Nc2cc(CN3CCN(c4ccc(C(=O)NC)nc4F)CC3)cn3ncc1c23` [Compound 33], the IC50 in data set [1] was less than 1.52 nM.
Consider `CNC(=O)c1ccc(N2CCN(Cc3cc4c5c(c(C(F)(F)F)nn5c3)N(C)C(=O)N4)CC2)c(C)n1` [Compound 58], for which the results for the concentration for half-maximal inhibition (IC50) in data set [1], in data set [2] (setting [5]) and in data set [3] (setting [6]) were 1.2 nM, 204 nM and 0.99 nM, respectively. Besides, in data set [3], the “PARP1/2 Fold selectivity” value was determined as 206.
Consider `CNC(=O)c1ccc(N2CCN(Cc3cc4c5c(cnn5C(C)C(=O)N4)c3)CC2)c(Cl)n1` (centres unmarked) [Compound 6], for which, in data set [4] (iv, mouse plasma, i.v.(1mg/kg)), the area under the curve AUC(0-t) came to 5030 ng·h/mL, the clearance came to 3.3 mL/min/kg and the half-life was 1.3 h. Also, the bioavailability in data set [4] (plasma, oral, mouse, p.o.(5mg/kg) versus i.v.(1mg/kg)) is 117%. Moreover, in data set [4] (po, mouse plasma, p.o.(5mg/kg)), the AUC(0-t) stood at 28700 ng·h/mL and the half-life was 2.7 h.
In the case of `CCC1C(=O)Nc2cc(CN3CCN(c4ccc(C(=O)NC)nc4F)CC3)cc3cnn1c23` (centres unmarked) [Compound 5], the IC50 in data set [1] was found to be 15.4 nM; in data set [3] (setting [6]) it was 0.78 nM.
On to `CCN1C(=O)Nc2cc(CN3CCN(c4ccc(C(=O)NC)nc4Cl)CC3)cn3ncc1c23` [Compound 34], for which the IC50 in data set [1] was 2.3 nM.
Consider `CNC(=O)c1ccc(N2CCN(Cc3cc4c5c(cnn5C5(CC5)C(=O)N4)c3)CC2)c(F)n1` [Compound 37], for which the half-maximal inhibitory concentration (IC50) in data set [1] was less than 1.52 nM; in data set [2] (setting [5]), 8.7 nM; in data set [3] (setting [6]) it was 0.24 nM. Also, the “PARP1/2 Fold selectivity” value in data set [3] worked out at 36.3.
As for `CNC(=O)c1ccc(N2CCN(Cc3cc4c5c(cnn5c3)N(CCO)C(=O)N4)CC2)c(C)n1` [Compound 63], the figures for the half-inhibitory concentration (IC50) in data set [1], in data set [2] (setting [5]) and in data set [3] (setting [6]) were 16.8 nM, 1830 nM and 2.1 nM, respectively. Further, in data set [3], the “PARP1/2 Fold selectivity” value was found to be 827.4.

The record behind these values is patent EP4759815A1, “FUSED TRICYCLIC COMPOUND, PHARMACEUTICAL COMPOSITION THEREOF, AND USE THEREOF” (Haihe Biopharma Co., Ltd., priority 2023, dated 2025).
